Data published in ChEMBL document CHEMBL1201862, “PubChem BioAssay data set” (2004).
Where “and” joins values, the source holds several entries; their conditions need not be identical. Equal values may be shown once. Where a name gives a salt, the structure may show the parent alone. Calls of active or inactive are those of the source.

Tests used:
Caspase-6 = target: T1, Caspase-6 (Homo sapiens, UniProt P55212); test: inhibition of CASP6 peptide cleavage – biochemical, VEID-R110 fluorescence, cherry-pick, dose response (AID 720632)
T1 sequence (P55212 whole entry): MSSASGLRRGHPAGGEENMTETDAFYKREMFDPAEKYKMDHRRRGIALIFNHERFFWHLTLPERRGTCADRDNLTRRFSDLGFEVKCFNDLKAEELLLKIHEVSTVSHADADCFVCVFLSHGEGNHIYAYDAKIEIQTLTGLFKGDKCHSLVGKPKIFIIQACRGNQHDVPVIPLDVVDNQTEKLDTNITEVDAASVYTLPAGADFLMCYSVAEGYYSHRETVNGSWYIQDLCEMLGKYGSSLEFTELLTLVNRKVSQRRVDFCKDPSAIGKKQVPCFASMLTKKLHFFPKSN

[1] = target: Ribosomal protein S6 kinase beta-1 (Homo sapiens, UniProt P23443); type: functional;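 note: measured as one member of a kinome-wide profiling panel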
Activin receptor type-1 = Activin receptor type-1 (Homo sapiens, UniProt Q04771); test: Navigating the Kinome. Panel member name: ACVR1; type: functional
[2] = target: Serine/threonine-protein kinase PAK 1 (Homo sapiens, UniProt Q13153); type: functional
[3] = target: Mitogen-activated protein kinase 9 (Homo sapiens, UniProt P45984); type: functional;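 note: value from a kinome panel profiling assay, MAPK9 panel entry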
[4] = target: Proto-oncogene tyrosine-protein kinase ROS (Homo sapiens, UniProt P08922); type: functional;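 note: ROS1 tested as one member of a kinome-wide kinase panel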
[5] = target: MAP kinase-interacting serine/threonine-protein kinase 2 (Homo sapiens, UniProt Q9HBH9); type: functional
[6] = target: Insulin-like growth factor 1 receptor (Homo sapiens, UniProt P08069); test: Navigating the Kinome. Panel member name: IGF1R; type: functional
[7] = target: Mitogen-activated protein kinase 1 (Homo sapiens, UniProt P28482); type: functional
[8] = target: Platelet-derived growth factor receptor alpha (Homo sapiens, UniProt P16234); test: Navigating the Kinome. Panel member name: PDGFRA; type: functional
Aurora kinase B = Aurora kinase B (Homo sapiens, UniProt Q96GD4); type: functional
[9] = target: Interleukin-1 receptor-associated kinase 4 (Homo sapiens, UniProt Q9NWZ3); type: functional
[10] = target: Vascular endothelial growth factor receptor 3 (Homo sapiens, UniProt P35916); type: functional;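 note: value from a kinome-wide profiling panel, with FLT4 as the panel member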
[11] = target: Homeodomain-interacting protein kinase 4 (Homo sapiens, UniProt Q8NE63); type: functional
[12] = target: Cyclin-dependent kinase 8 (Homo sapiens, UniProt P49336); test: Navigating the Kinome. Panel member name: CDK8; type: functional
[13] = target: Serine/threonine-protein kinase PLK1 (Homo sapiens, UniProt P53350); type: functional;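 note: PLK1 measured as one member of a kinome-wide profiling panel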
[14] = target: Serine/threonine-protein kinase BRSK1 (Homo sapiens, UniProt Q8TDC3); type: functional;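 note: measured within a kinome-wide kinase panel, with the target listed as KIAA1811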
[15] = target: Dual specificity mitogen-activated protein kinase kinase 2 (Homo sapiens, UniProt P36507); test: Navigating the Kinome. Panel member name: MAP2K2; type: functional
[16] = target: Tyrosine-protein kinase FRK (Homo sapiens, UniProt P42685); type: functional;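 note: FRK tested as one member of a kinome panel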
Cytochrome P450 1A2 = target: T2, Cytochrome P450 1A2 (Homo sapiens, UniProt P05177);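 note: PubChem cytochrome P450 panel assay, CYP1A2 panel member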
T2 sequence (P05177 whole entry): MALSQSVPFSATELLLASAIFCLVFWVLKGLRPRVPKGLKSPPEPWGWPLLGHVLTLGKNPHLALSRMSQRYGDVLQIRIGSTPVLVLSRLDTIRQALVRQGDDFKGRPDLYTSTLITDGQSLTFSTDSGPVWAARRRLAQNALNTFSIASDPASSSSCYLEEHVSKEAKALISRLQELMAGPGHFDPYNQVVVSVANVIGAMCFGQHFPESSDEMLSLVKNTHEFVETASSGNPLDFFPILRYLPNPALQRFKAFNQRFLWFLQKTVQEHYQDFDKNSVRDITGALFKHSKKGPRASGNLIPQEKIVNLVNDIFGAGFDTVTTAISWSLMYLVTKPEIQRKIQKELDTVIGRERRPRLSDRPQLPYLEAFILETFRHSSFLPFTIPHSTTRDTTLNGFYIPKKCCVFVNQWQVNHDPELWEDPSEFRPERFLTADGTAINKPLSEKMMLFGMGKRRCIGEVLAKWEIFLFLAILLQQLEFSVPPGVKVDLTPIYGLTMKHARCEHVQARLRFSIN

[17] = Luminescence Cell-Based Dose Confirmation to Identify Activators of 5'UTR Stem-Loop Driven Alpha-Synuclein mRNA Translation in H4 Neuroglioblastoma Cells. [Related pubchem assays: 1829 (Project Summary), 1814 (Primary HTS)]; type: functional
[18] = target: Intestinal-type alkaline phosphatase (Mus musculus, UniProt P24822); test: PubChem AID 488874; type: functional
[19] = target: Intestinal-type alkaline phosphatase (Homo sapiens, UniProt P09923); test: inhibition of human intestinal alkaline phosphatase – biochemical, luminescent, uHTS hits, set 2, dose response (AID 488793); type: functional
[20] = Counterscreen for AddAB inhibitors: absorbance-based bacterial cell-based high throughput dose response assay for inhibitors of bacterial viability. [Related pubchem assays (depositor defined):AID435030, AID449728, AID449731, AID488942, AID488955, AID488956]; type: functional
[21] = viability loss in HeLa cells – cytotoxicity control for MgcRacGAP inhibitor project, dose response (AID 624300); type: functional
[22] = target: T3, COUP transcription factor 2 (Homo sapiens, UniProt P24468); test: Luminescence-based cell-based high throughput dose response assay to identify inhibitors of COUP-TFII (NR2F2).; type: functional;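 note: HEK293 cells transiently cotransfected with COUP-TFII expression vector and reporter; luciferase reporter luminescence driven by COUP-TFII from the pX2-168 reporter plasmid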
T3 sequence (P24468 whole entry): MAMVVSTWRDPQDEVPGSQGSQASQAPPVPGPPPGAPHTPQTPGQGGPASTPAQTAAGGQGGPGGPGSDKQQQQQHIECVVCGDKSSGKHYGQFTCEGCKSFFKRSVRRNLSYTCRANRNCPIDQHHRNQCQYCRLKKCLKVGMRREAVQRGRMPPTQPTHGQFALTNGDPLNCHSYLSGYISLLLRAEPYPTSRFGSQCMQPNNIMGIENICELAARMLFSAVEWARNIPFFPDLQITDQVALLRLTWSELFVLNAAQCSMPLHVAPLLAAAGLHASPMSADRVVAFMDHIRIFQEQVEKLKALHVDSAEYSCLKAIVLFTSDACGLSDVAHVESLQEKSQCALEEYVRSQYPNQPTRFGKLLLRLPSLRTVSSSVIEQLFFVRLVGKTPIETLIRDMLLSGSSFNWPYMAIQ

Chain of Interleukin-1 receptor-associated kinase 4 (Q9NWZ3 whole entry): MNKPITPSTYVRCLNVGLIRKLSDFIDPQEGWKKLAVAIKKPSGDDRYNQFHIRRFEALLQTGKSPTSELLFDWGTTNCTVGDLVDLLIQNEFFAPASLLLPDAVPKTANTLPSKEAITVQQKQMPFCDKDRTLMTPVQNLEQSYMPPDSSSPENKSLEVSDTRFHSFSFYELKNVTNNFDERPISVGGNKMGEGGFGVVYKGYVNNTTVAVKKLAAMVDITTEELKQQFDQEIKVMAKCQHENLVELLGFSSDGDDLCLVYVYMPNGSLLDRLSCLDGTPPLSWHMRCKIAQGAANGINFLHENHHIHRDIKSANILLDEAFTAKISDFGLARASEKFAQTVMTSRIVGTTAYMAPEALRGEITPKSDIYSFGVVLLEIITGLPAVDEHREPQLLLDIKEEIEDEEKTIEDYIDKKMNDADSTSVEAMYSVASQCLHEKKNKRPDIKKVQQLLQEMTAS
Chain of Insulin-like growth factor 1 receptor (P08069 31-736 limits assumed): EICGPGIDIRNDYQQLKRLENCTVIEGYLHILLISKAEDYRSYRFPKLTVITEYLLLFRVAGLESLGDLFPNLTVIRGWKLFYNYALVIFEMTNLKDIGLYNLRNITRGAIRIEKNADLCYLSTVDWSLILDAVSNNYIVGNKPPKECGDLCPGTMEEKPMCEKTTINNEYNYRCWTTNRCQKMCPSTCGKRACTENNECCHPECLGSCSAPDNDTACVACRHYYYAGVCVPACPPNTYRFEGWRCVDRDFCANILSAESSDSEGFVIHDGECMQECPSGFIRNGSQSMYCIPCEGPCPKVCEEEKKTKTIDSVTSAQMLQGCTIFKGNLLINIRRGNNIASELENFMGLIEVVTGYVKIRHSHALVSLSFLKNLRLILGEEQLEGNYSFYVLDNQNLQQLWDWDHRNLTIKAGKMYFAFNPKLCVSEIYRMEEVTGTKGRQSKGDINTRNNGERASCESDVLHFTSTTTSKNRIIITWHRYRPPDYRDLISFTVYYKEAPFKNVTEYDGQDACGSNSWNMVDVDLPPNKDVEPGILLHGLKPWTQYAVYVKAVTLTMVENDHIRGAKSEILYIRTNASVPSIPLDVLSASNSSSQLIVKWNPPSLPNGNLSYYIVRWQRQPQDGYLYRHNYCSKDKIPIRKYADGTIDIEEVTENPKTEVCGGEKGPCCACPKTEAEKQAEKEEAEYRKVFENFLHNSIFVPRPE
Chain of Insulin-like growth factor 1 receptor (P08069 741-1367 limits assumed): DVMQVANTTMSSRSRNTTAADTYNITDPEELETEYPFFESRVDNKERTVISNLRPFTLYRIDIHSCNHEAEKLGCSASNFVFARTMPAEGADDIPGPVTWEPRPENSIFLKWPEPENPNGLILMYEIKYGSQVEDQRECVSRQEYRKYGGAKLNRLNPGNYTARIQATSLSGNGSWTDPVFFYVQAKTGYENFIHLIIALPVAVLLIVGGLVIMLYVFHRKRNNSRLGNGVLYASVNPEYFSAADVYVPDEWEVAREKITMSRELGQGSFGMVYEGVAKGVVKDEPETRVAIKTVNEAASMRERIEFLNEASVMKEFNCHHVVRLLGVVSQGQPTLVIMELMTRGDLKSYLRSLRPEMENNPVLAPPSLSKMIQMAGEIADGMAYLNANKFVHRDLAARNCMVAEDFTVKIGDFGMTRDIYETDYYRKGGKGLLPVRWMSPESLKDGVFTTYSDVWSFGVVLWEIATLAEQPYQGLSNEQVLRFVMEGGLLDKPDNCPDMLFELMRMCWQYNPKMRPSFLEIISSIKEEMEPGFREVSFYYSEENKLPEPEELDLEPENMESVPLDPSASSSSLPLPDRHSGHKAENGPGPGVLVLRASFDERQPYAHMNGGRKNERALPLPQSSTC
Chain of Platelet-derived growth factor receptor alpha (P16234 whole entry): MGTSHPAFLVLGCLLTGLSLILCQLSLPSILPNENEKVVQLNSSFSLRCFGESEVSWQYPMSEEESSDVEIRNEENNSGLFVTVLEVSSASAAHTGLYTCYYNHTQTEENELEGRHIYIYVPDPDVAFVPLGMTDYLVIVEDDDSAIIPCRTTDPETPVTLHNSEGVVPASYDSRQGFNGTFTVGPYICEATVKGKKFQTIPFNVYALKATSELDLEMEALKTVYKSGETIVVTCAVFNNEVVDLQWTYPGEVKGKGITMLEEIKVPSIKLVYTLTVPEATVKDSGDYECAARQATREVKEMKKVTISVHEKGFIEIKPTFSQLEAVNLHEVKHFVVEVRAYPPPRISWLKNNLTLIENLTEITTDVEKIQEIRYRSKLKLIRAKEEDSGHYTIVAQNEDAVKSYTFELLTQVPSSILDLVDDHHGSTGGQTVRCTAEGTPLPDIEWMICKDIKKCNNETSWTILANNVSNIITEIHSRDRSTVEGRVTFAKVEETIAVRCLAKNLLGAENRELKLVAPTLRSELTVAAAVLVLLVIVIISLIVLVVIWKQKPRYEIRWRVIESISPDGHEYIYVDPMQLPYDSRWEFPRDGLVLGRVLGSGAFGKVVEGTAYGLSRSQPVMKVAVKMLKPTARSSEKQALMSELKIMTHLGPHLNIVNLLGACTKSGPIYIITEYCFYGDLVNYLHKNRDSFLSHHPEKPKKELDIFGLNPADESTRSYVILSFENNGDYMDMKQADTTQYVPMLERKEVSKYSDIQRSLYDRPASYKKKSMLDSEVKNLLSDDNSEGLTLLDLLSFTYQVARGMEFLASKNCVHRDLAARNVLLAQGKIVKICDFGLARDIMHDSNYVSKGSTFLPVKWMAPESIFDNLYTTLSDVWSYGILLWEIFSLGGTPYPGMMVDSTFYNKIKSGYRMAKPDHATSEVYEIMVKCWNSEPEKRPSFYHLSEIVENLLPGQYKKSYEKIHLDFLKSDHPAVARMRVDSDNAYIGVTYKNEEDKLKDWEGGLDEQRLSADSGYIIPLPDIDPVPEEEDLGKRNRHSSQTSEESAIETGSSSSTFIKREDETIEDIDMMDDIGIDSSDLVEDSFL
Chain of Homeodomain-interacting protein kinase 4 (Q8NE63 whole entry): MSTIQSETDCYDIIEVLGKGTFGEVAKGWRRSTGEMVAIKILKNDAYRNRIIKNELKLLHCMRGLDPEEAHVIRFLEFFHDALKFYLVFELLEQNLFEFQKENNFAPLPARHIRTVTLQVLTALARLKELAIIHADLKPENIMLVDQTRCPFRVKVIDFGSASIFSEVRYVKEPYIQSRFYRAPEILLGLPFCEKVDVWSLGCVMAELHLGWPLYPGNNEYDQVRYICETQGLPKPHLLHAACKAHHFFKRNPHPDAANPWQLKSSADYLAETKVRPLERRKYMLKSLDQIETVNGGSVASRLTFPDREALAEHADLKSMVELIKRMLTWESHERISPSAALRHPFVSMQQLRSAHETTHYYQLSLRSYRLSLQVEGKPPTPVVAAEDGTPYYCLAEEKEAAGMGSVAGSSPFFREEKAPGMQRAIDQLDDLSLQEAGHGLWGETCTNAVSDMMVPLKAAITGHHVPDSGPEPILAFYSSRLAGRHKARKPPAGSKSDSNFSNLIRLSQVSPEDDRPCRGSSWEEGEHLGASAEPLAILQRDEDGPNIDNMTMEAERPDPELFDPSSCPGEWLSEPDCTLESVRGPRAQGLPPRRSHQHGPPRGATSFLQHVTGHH
Chain of Mitogen-activated protein kinase 1 (P28482 whole entry): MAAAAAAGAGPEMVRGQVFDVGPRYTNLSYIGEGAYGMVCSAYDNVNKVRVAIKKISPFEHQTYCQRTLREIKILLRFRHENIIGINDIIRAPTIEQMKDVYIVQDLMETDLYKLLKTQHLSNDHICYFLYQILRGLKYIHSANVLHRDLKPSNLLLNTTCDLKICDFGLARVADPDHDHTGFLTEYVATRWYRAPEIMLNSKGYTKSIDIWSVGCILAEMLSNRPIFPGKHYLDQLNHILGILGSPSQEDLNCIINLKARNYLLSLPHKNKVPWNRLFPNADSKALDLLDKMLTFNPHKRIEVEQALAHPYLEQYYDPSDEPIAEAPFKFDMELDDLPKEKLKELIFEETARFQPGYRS
Chain of Tyrosine-protein kinase FRK (P42685 whole entry): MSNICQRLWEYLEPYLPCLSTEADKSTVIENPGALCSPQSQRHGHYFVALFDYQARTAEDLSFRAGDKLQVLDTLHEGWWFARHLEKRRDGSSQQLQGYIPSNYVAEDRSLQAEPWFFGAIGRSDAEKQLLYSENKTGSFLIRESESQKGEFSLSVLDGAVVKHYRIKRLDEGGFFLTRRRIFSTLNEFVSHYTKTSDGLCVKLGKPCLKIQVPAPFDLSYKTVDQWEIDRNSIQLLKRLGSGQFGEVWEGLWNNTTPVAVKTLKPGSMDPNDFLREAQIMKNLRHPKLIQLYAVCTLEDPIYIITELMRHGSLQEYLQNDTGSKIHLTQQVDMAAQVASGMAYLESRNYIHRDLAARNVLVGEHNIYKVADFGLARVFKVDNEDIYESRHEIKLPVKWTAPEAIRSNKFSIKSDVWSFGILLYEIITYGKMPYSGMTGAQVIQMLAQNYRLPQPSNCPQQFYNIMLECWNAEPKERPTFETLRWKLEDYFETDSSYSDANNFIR
Chain of Aurora kinase B (Q96GD4 whole entry): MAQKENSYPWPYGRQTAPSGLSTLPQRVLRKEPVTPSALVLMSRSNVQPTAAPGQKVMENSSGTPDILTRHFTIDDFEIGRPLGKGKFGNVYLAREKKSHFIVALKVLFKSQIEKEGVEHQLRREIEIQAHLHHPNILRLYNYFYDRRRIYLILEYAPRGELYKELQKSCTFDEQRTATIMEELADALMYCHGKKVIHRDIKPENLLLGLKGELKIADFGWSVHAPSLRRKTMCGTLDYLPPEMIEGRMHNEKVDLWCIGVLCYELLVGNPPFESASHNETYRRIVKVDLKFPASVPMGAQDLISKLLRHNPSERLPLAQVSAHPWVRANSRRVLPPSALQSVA

CC[C@@H](CO)NC(=O)[C@@H]1C=C2c3cccc4c3c(cn4C)C[C@H]2N(C)C1 [METHYSERGIDE MALEATE]
AC50 (Caspase-6): 11.5 µM (active) and 11.7 µM (active)

CN1CCN(c2nc(C3=C(c4c[nH]c5ccccc45)C(=O)NC3=O)c3ccccc3n2)CC1 [SOTRASTAURIN]
Ki [1]: 0.158 µM (active)
Ki (Activin receptor type-1): > 3.98 µM (inactive)
Ki [2]: > 10 µM (inactive)
Ki [3]: > 3.98 µM (inactive)
Ki [4]: > 2 µM (inactive)
Ki [5]: > 10 µM (inactive)
Ki [6]: > 2 µM (inactive)
Ki [7]: > 7.94 µM (inactive)
Ki [8]: > 2.51 µM (inactive)
Ki (Aurora kinase B): > 5.01 µM (inactive)
Ki [9]: > 10 µM (inactive)
Ki [10]: 0.316 µM (active)
Ki [11]: > 7.94 µM (inactive)
Ki [12]: > 3.98 µM (inactive)
Ki [13]: 0.0631 µM (active)
Ki [14]: 2.51 µM (active)
Ki [15]: > 3.98 µM (inactive)
Ki [16]: > 2.51 µM (inactive)

CCC(C)n1c(NC(=O)c2ccccc2)c(C#N)c2nc3ccccc3nc21 (stereo unspecified)
AC50 (Cytochrome P450 1A2): 25.1 µM (inconclusive)

CCN1/C(=C\c2ccc3ccccc3[n+]2CC)Sc2cc(C)ccc21
EC50 [17]: > 12 µM (not active)
IC50 [18]: 20.8 µM (active)
IC50 [19]: 23.5 µM (active)
IC50 [20]: 37.5 µM (inactive)
CC50 [21]: 14.4 µM (active)
IC50 [22]: 2.75 µM (active)
